Data: patent US12708116B2, “Herbicidal compositions comprising 2,4-D” (BASF SE, priority 2023, dated 2026)

Columns and labels:
Experiment in all cases: Post-emergence application in field trials
ECHCG = format: in vivo, Echinochloa crus-galli
HORVW = conditions: growth stage 23-29, height 20-25 cm
ZEAMX = conditions: growth stage 15-16
SETVI = format: in vivo, Setaria viridis; conditions: 15 DAT; g ai/ha A-1 12.5, B-5 1066, C-10 840; growth stage 13-19; height 2-18 cm; water volume 140 l/ha
DIGSA = test system: DIGSA
AMAPA = conditions: 14 DAT, growth stage 12-24, height 5-30 cm, water volume 140 l/ha
DATST = conditions: Example 6; 21 DAT; g ai/ha A-1 12.5, B-5 1066, C-11 400
SETVE = conditions: Example 6, g ai/ha A-1 12.5, B-5 1066, C-11 400, growth stage 21-23, height 10-15 cm
CYPES = conditions: 21 DAT, water volume 140 l/ha
[1] = Example 7, 28 DAT, g ai/ha A-1 12.5, B-4 1066, C-11 400, growth stage 23-30, height 15-20 cm
[2] = Example 9, 28 DAT, g ai/ha A-1 12.5, B-4 1066, C-12 252, growth stage 23-30, height 15-20 cm
[3] = Example 7, 28 DAT, g ai/ha A-1 12.5, B-4 1066, C-11 400
[4] = Example 9, 21 DAT, g ai/ha A-1 12.5, B-4 1066, C-12 252
[5] = Example 11, 21 DAT, g ai/ha A-1 12.5, B-4 1066, C-4 12.5
[6] = Example 7, 28 DAT, g ai/ha A-1 12.5, B-4 1066, C-11 400, height 50-60 cm
[7] = Example 9, 28 DAT, g ai/ha A-1 12.5, B-4 1066, C-12 252, height 50-60 cm
[8] = Example 11, 21 DAT, g ai/ha A-1 12.5, B-4 1066, C-4 12.5, height 50-60 cm

CNC.O=C(O)COc1ccc(Cl)cc1Cl [B-4, 2,4-D-dimethylammonium]
% Herbicidal activity (ECHCG; [1]): 0% | % Herbicidal activity (ECHCG; [2]): 0% | % Herbicidal activity (HORVW; Example 5, 7 DAT, g ai/ha A-1 12.5, B-4 1066): 0% | % Herbicidal activity (HORVW; [3]): 0% | % Herbicidal activity (HORVW; [4]): 0% | % Herbicidal activity (HORVW; [5]): 0% | % Herbicidal activity (ZEAMX; Example 5, 21 DAT, g ai/ha A-1 12.5, B-4 1066, height 50-60 cm): 0% | % Herbicidal activity (ZEAMX; [6]): 0% | % Herbicidal activity (ZEAMX; [7]): 0% | % Herbicidal activity (ZEAMX; [8]): 0%

C#CCN1C(=O)C(F)(F)Oc2cc(F)c(-n3c(=O)n(C)c(=S)n(C)c3=O)cc21 [C-4, trifludimoxazin]
% Herbicidal activity (ECHCG; Example 10, 21 DAT, g ai/ha A-1 12.5, B-5 1066, C-4 12.5, growth stage 23-30, height 15-20 cm): 30% | % Herbicidal activity (HORVW; Example 10, 21 DAT, g ai/ha A-1 12.5, B-5 1066, C-4 12.5): 30% | % Herbicidal activity (HORVW; [5]): 20% | % Herbicidal activity (ZEAMX; [8]): 30%

O=C(O)CNCP(=O)(O)O [C-10, glyphosate-potassium]
% Herbicidal activity (ECHCG; 13 DAT, g ai/ha A-1 12.5, B-5 1066, C-10 840, growth stage 21-26, height 15-30 cm, water volume 187 l/ha): 90% | % Herbicidal activity (ECHCG; 13 DAT, g ai/ha A-1 25, B-5 1066, C-10 840, growth stage 21-26, height 15-30 cm, water volume 187 l/ha): 90% | % Herbicidal activity (ECHCG; 13 DAT, g ai/ha A-1 50, B-5 1066, C-10 840, growth stage 21-26, height 15-30 cm, water volume 187 l/ha): 90% | % Herbicidal activity (SETVI): 93% | % Herbicidal activity (DIGSA; 15 DAT, g ai/ha A-1 12.5, B-5 1066, C-10 840, growth stage 13-19, height 2-13 cm, water volume 140 l/ha): 93% | % Herbicidal activity (AMAPA; g ai/ha A-1 12.5, B-5 1066, C-10 840): 22% | % Herbicidal activity (AMAPA; g ai/ha A-1 25, B-5 1066, C-10 840): 22%

CP(=O)(O)CCC(N)C(=O)O (centres unmarked) [C-11, glufosinate-ammonium]
% Herbicidal activity (ECHCG; Example 6, 7 DAT, g ai/ha A-1 12.5, B-5 1066, C-11 400, growth stage 23-30, height 15-20 cm): 30% | % Herbicidal activity (ECHCG; Example 6, 28 DAT, g ai/ha A-1 12.5, B-5 1066, C-11 400, growth stage 23-30, height 15-20 cm): 70% | % Herbicidal activity (ECHCG; [1]): 60% | % Herbicidal activity (HORVW; Example 6, 28 DAT, g ai/ha A-1 12.5, B-5 1066, C-11 400): 30% | % Herbicidal activity (HORVW; [3]): 10% | % Herbicidal activity (DIGSA; 21 DAT, g ai/ha A-1 12.5, B-5 1066, C-11 655, height 2-8 cm, water volume 140 l/ha): 49% | % Herbicidal activity (DIGSA; 21 DAT, g ai/ha A-1 25, B-5 1066, C-11 655, height 2-8 cm, water volume 140 l/ha): 49% | % Herbicidal activity (DIGSA; 21 DAT, g ai/ha A-1 50, B-5 1066, C-11 655, height 2-8 cm, water volume 140 l/ha): 49% | % Herbicidal activity (DIGSA; Example 6, 7 DAT, g ai/ha A-1 12.5, B-5 1066, C-11 400, growth stage 21-22, height 15-20 cm): 25% | % Herbicidal activity (DIGSA; Example 6, 21 DAT, g ai/ha A-1 12.5, B-5 1066, C-11 400, growth stage 21-22, height 15-20 cm): 20% | % Herbicidal activity (DATST): 50% | % Herbicidal activity (SETVE; 7 DAT): 55% | % Herbicidal activity (SETVE; 21 DAT): 40% | % Herbicidal activity (ZEAMX; Example 6, 7 DAT, g ai/ha A-1 12.5, B-5 1066, C-11 400, height 25-30 cm): 40% | % Herbicidal activity (ZEAMX; Example 6, 28 DAT, g ai/ha A-1 12.5, B-5 1066, C-11 400, height 50-60 cm): 70% | % Herbicidal activity (ZEAMX; [6]): 40% | % Herbicidal activity (CYPES; g ai/ha A-1 12.5, B-5 1066, C-11 655): 18% | % Herbicidal activity (CYPES; g ai/ha A-1 50, B-5 1066, C-11 655): 18%

CP(=O)(O)CC[C@H](N)C(=O)O.N [C-12, glufosinate-P-ammonium]
% Herbicidal activity (ECHCG; Example 8, 7 DAT, g ai/ha A-1 12.5, B-5 1066, C-12 252, growth stage 23-30, height 15-20 cm): 50% | % Herbicidal activity (ECHCG; Example 8, 21 DAT, g ai/ha A-1 12.5, B-5 1066, C-12 252, growth stage 23-30, height 15-20 cm): 70% | % Herbicidal activity (ECHCG; Example 8, 28 DAT, g ai/ha A-1 12.5, B-5 1066, C-12 252, growth stage 23-30, height 15-20 cm): 60% | % Herbicidal activity (ECHCG; [2]): 60% | % Herbicidal activity (HORVW; Example 8, 21 DAT, g ai/ha A-1 12.5, B-5 1066, C-12 252): 20% | % Herbicidal activity (HORVW; [4]): 60% | % Herbicidal activity (ZEAMX; Example 8, 28 DAT, g ai/ha A-1 12.5, B-5 1066, C-12 252, height 50-60 cm): 70% | % Herbicidal activity (ZEAMX; [7]): 60%
